Values quoted from earlier work as cited in patent US20140018379A1, “PYRIMIDINE DERIVATIVES” (CONCERT PHARMACEUTICALS INC., priority 2010, published 2014).

Settings: 12th CROI 2005, Abst 160

Cc1cc(/C=C/C#N)cc(C)c1Nc1ccnc(Nc2ccc(C#N)cc2)n1.Cl [rilpivirine, 4-[4-[4-[(E)-2-cyanovinyl]-2,6-dimethylphenylamino]pyrimidin-2-ylamino]benzonitrile hydrochloride]
safety and tolerability in clinical trials: safe and well-tolerated
most commonly reported adverse event (clinical trials): Headache
